Measured values published in patent US4131615A, “Furan derivative for use as pharmaceutical product particularly for the treatment of rheumatic illnesses” (A. Wasserman S.p.A., priority 1977, dated 1978).

What was measured:
[1] = test system: experimentally induced arthritis (Freund's adjuvant arthritis); test: Freund's adjuvant arthritis; type: in vivo; conditions: 20-40 mg/Kg oral, rat, confirmed by radiologic test
[2] = test system: Nystatin subplantaris edema; test: Curative activity, Nystatin subplantaris edema; type: in vivo; conditions: rat, doses equal to those cited above (80-40-20 mg/Kg)
Protocol: (§1) The product of the EXAMPLE 1, ±αmethyl-4-(furan-2-carbonyl)phenyl acetic acid, was subjected to toxicological and pharmacological tests in rats and mice. The animals used were Sprague Dawley rats and Swiss mice of both sexes, to which the product was administered orally as a 2% suspension in gum arabic parenterally as the sodium salt.

[3] = test system: Yeast-Induced fever; test: Antipyretic Effect in Yeast-Induced fever; type: in vivo, female Sprague Dawley rats; conditions: 80 mg/Kg oral, after 60 minutes (peak-effect)
Protocol: as §1
5) Antipyretic Effect in Yeast-Induced fever.
The oral administration of rispectively 80-40-20 mg/Kg of the product to female rats reduces the increase in temperature of the rectum, caused by the injection under the skin of 10 ml/Kg of 15% brewer's yeast in 1% arabic gum, by rispectively 71%-63%-33% after 60 minutes (peak-effect) from the administration.

[4] = Acute oral toxicity in mice; parameters: species or system male and female Swiss mice; conditions: in vivo, mouse, 14 days, approximate value
Protocol: as §1
(§2) This has been tested in male and female mice weighing from 18 to 22 g and in female rats weighing from 90 to 120 grams.
(§3) The product was administered to groups of 6 mice and groups of 6 rats, mortality being looked for 14 days after the administration.

[5] = test system: edema induced by Carrageenan; test: Anti-inflammatory activity, Carrageenan-induced edema; type: in vivo, male Sprague Dawley rats; conditions: 80 mg/Kg oral, 30 minutes before Carrageenan, after 3 hours
Protocol: as §1
An edema was induced in male rats weighing about 120 grams by injection into the aponeurosis under the plantaris of the left foot of 0.1 ml of 1% Carrageenan in saline.
The oral administration of 80-40-20 mg/Kg of product, 30 minutes before the inflammatory agent, reduced after 3 hours the development of the edema by rispectively 53%-47% -23% with respect to that induced in the controls.

[6] = test system: Cotton-Pellet induced granuloma; test: Anti-inflammatory activity on Cotton-Pellet induced granuloma; type: in vivo, female Sprague Dawley rats; conditions: 15 mg/Kg oral daily for 7 days, divided into 4 administrations over 9 hours
Protocol: as §1
3) Anti-inflammatory activity on Cotton-Pellet induced granuloma.
The oral administration daily for 7 days of a dose of 15 mg/Kg of the product, divided into 4 administrations taken over a time of 9 hours, reduced the formation of granulomatous tissue formed around Cotton-Pelletsplanted aseptically under the skin of female rats, weighing from 180 to 200 grams, by 17% with respect to controls.

[7] = test system: contortions caused by phenyl-p-benzoquinone; test: Analgesic activity, phenyl-p-benzoquinone contortions; type: in vivo, female Swiss mice; conditions: Mus musculus; oral, female mice, contortions by intraperitoneal 0.02% phenyl-p-benzoquinone
Protocol: as §1
The oral administration of the product to female mice weighing from 18 to 22 grams reduced the number of contortions caused by the intraperitoneal injection of 0.1 ml/10 g of body weight of a 0.02% solution of phenyl-p-benzoquinone.

[8] = Acute oral toxicity in rats; parameters: species or system female Sprague Dawley rats; conditions: in vivo, rat, 14 days, approximate value
Protocol: as §1, §2, §3

[9] = test system: arterial pressure; test: Action on arterial pressure; type: in vivo; conditions: endovenous injection, 2.5-12.5-62.5 mg/Kg, rabbit
Description: 7) Action on arterial pressure.

For CC(C(=O)O)c1ccc(C(=O)c2ccco2)cc1 (racemic) [Example 1, ±α-methyl-4-(furan-2-carbonyl)-phenylacetic acid], which “Recovery from experimentally induced arthritis” value [1] is on record?
Its value is “Recovery from experimentally induced arthritis in the rat (Freund's adjuvant arthritis) has been obtained”.

What about the “regress of the Nystatin subplantaris edema (curative activity)” value [2] of the same molecule?
The value was “induce in the rat a regress of the Nystatin subplantaris edema”.

What about the “reduction of the increase in temperature of the rectum” value [3] of the same molecule?
The value was 71%.

And the LD50 at 336 h [4]?
Its LD50 at 336 h is about 1000 mg/kg.

And the “reduction of the development of the edema with respect to controls” value [5]?
The value was 53%.

And the “reduction of the formation of granulomatous tissue with respect to controls” value [6]?
Its value is 17%.

What about the ED50 [7] of the same molecule?
The ED50 was 4.35 mg/kg.

And the LD50 at 336 h [8]?
The LD50 at 336 h was about 980 mg/kg.

And the “variations in the blood pressure” value [9]?
Its value is “does not induce significant variations in the blood pressure”.
